We go through ten molecules from patent US20240148889A1, “STABILIZED TRIOXACARCIN ANTIBODY DRUG CONJUGATES AND USES THEREOF” (President and Fellows of Harvard College, priority 2020, published 2024).

Usually IC50 stands for the concentration that gives 50% inhibition. A high value points to lower potency.

Entries after “also recorded” stand apart in the source; their conditions may differ.

The subject of one data set is NCI-N87 (HER2+). Nature of the data set: Cell proliferation assay, NCI-N87. The class given is cell-based. As to conditions: Homo sapiens.
The next data set concerns H460 cells. Nature of the data set: Cell proliferation assay (resazurin, CellTiter-Blue), H460. The class given is cell-based. As to conditions: for IC50: Homo sapiens, NCI-H460, 48 h, 2 days incubation, determined in triplicate; for cellular toxicity against H460 cells relative to the parent epoxide: relative to parent epoxide 1. As to the method: (§1) Cell Culture: Cell line NCI-H460, was purchased from American Type Culture Collection (ATCC). H460 cells were maintained in RPMI-1640 medium and HT-29 cells were maintained in McCoy's 5A medium, supplemented with 10% fetal bovine serum (Life Technologies, UK).
(§2) Cell Proliferation Assay: Cells were plated in black-walled 96-well plates (3000-4000 cells per well). Stock solutions of each compound were diluted serially and the resulting solutions were administrated to cells to achieve final concentrations of 1.1 nM to 2.5 μM in 100 μL total volume. After incubating at 37° C. (5% CO2) for 2 days (H460), 20 μL of resazurin solution (Promega CellTiter-Blue® Cell Viability Assay) was added to each well. After incubating at 37° C. for 4.0 h, the fluorescence (560 nm excitation/590 nm emission) was recorded using a microplate reader (SpectraMax i3) as a measure of viable cells. IC50 values, determined in triplicate, were calculated using a four-parameter logistic equation.
(Resazurin is reduced to fluorescent resorufin, in cell work by metabolically active cells.)

The next data set deals with HT-29 (HER2−). Nature of the data set: Cell proliferation assay, HT-29. Format: cell-based. Particulars: Homo sapiens. As to the method:
as §1, §2

The next data set deals with SK-BR-3 (HER2+). In words: Cell proliferation assay, SK-BR-3. The class given is cell-based. Particulars: Homo sapiens. As to the method:
as §2

The nature of data set [1]: Liberation of bromohydrin by immolative spacer cyclization in buffer. Format: physicochemical. The source says:
In order to prevent premature reversion to the epoxide, a system in which the trioxacarcin prodrug would be linked through the tertiary alcohol of the halohydrin was envisioned. Therefore, epoxide formation could only occur once the payload had been released from the antibody upon delivery to the cellular target. Despite recent advances in the field, technology for linkage through alcohol functional groups is limited. Synthesis of benzyl ether, ester, carbonate, carbamate, diphosphate, and silyl linkers at the tertiary alcohol of 3 (bromohydrin) through previously reported methods all failed. Indeed, the electron withdrawing substituents surrounding the halohydrin alcohol (two P-acetals, a y-acetal and a bromide) coupled with the steric encumbrance they impose prevented reaction of this alcohol with nearly all electrophiles evaluated. […] It was believed that this diamine spacer would release free bromohydrin after peptidase cleavage of the linker. Simultaneous Boc deprotection of both the phenol and amine with trifluoroacetic acid (TFA) provided the TFA salt of the amine 9 after concentration, which was evaluated immediately for liberation of bromohydrin 3. […] Modifications of the diamine spacer unit to increase the rate of cyclization were unsuccessful. […]

The test system of another data set is gram-positive. As to conditions: cited from earlier work.
Another data set relates to tumor. Particulars: cited from earlier work.
The test system of data set [2] is self-complementary duplex DNA oligonucleotide d(AATTACGTAATT). In words: DNA alkylation of duplex oligonucleotide, gel electrophoresis and LC-MS. Format: biochemical. From the text: In developing the compounds described herein, it was anticipated that reversible opening of the epoxide with a latent leaving group would reduce the reactivity of the warhead while attached to the antibody but would allow for reformation of the epoxide under appropriate conditions. After exploration of a variety of possible epoxide adducts using a potent analog (1, Me-ddx), it was discovered that halohydrin FSTs were not only readily synthesized under Lewis- or Brønsted-acid catalysis, but also reverted to the epoxide cleanly in pH 7.4 cell growth media at 37° C. (Scheme 7). […] The DNA-alkylating capability of the bromohydrin FST 3 in comparison to a set of FST analogs of varying potency by incubation with a self-complementary duplex DNA oligonucleotide d([…]) for 4 h at 23° C. then analysis by gel electrophoresis and LC-MS was investigated.

Data set [3] is described as follows: Compound Stability Assay (buffer, 37° C., LC-MS). Format: physicochemical. As to the method:
Compound Stability Assay: In a 1.5 mL screw-top conical plastic vial, the desired compound as a solution in DMSO (5 mM, 6 μL, 30 nmol) was mixed with a solution of N-acetylcysteine in DMSO (10 mM, 6 μL, […], 2 equiv) to quench the maleimide. The mixture was diluted with either pH 5.0 sodium acetate or pH 7.4 phosphate buffer containing 8 mM N-acetylcysteine (282 μL). 1-naphthalene acetic acid in DMSO (5 mM, 6 μL, 30 nmol) was added as an internal standard. In the case of testing free drug stability, no N-acetylcysteine solution was added and instead the amount of buffer added was increased an equivalent amount to compensate (288 μL total buffer). The vial was placed in a heating block at 37° C. and protected from direct light. 25 μL aliquots of the reaction mixture were removed at various time points and analyzed by LC-MS. LC-MS peaks were integrated within the Agilent LC-MS software and the areas of each peak were normalized to 1-napthalene acetic acid at 280 nm. Percent compound remaining is defined as the normalized peak area at a given time point divided by the normalized peak area at 0 hours×100%.

In the next data set the target is Cathepsin B (Homo sapiens, UniProt P07858). In words: Release Kinetics Assay with Cathepsin B. Format: biochemical. As to conditions: pH 5.0, 37° C. As to the method:
Release Kinetics Assay: In a 1.5 mL screw-top conical plastic vial, the desired compound as a solution in DMSO (5 mM, 6 μL, 30 nmol) was mixed with a solution of N-acetylcysteine in DMSO (10 mM, 6 μL, […], 2 equiv) to quench the maleimide. The mixture was diluted with pH 5.0 sodium acetate buffer containing 8 mM N-acetylcysteine (255 μL). 1-napthalene acetic acid in DMSO (5 mM, 6 μL, 30 nmol) was added as an internal standard. A 9.2 U/mL solution of Cathepsin B in pH 5.0 buffer was added. The vial was placed in a heating block at 37° C. and protected from direct light. 25 μL aliquots of the reaction mixture were removed at various time points and analyzed by LC-MS. LC-MS peaks were integrated within the Agilent LC-MS software and the areas of each peak were normalized to 1-napthalene acetic acid at 280 nm. Percent drug-linker remaining is defined as the normalized peak area at a given time point divided by the normalized peak area at 0 hours×100%.

The subject of a further data set is H-460. Particulars: lung cancer cell line; cited from earlier work.
In the next data set the test system is LXFL 529L. As to conditions: lung cancer cell line; cited from earlier work.
Another data set deals with SF-268. Particulars: CNS cancer cell line; cited from earlier work.
The next data set relates to MCF-7. Particulars: mammary cancer cell line; cited from earlier work.

`COc1c2c(c(O)c3c4c(c(C)cc13)C1OC3(C(OC)OC)OC1[C@@](OC)(O4)[C@@]3(O)CI)C(=O)CCC2` (stereo partly shown) [compound 4]: the IC50 worked out at 1 nM in the data set on NCI-N87 (HER2+), 4 nM in the data set with H460 cells (H460 cells), 7 nM in the data set with HT-29 (HER2−) and 4 nM in the data set with SK-BR-3 (HER2+). Also, in the data set with H460 cells, the “cellular toxicity against H460 cells relative to the parent epoxide” value is on record as “no loss in cellular toxicity”.
For the molecule `CNCCNC(=O)O[C@]1(CBr)C2(C(OC)OC)OC3c4c(C)cc5c(OC)c6c(c(O)c5c4O[C@]1(OC)C3O2)C(=O)CCC6` (stereo partly shown) [compound 9], the “liberation of bromohydrin 3 through diamine spacer cyclization” value in data set [1] (37° C., pH 7.4 or 5.0 buffer) is “no liberation of bromohydrin was observed”.
In the case of `COc1c2c(c(O)c3c4c(c(C)cc13)C1OC3(C(OC)OC)OC1C(OC1CC(O)C(O)(C(C)O)C(C)O1)(O4)C31CO1)C(=O)C(O)CC2OC1COC(C)(OC(C)=O)C(C)(O)C1` (stereo not shown) [Trioxacarcin C], the gram-positive antibiotic activity entry with gram-positive is on record as “gram-positive antibiotic activity”. The “anti-tumor activity in murine models” value in the data set with tumor is listed as “anti-tumor activity”.
On to `COc1c2c(c(O)c3c4c(c(C)cc13)C1OC3(C(OC)OC)OC1C(O[C@H]1C[C@@H](O)[C@@](O)(C(C)=O)[C@H](C)O1)(O4)C3(O)CO)C(=O)C(O)CC2O[C@H]1C[C@@](C)(O)[C@H](OC(C)=O)[C@H](C)O1` (stereo partly shown) [Trioxacarcin B], for which the gram-positive antibiotic activity entry in the data set with gram-positive is reported as “gram-positive antibiotic activity”. The “anti-tumor activity in murine models” value in the data set with tumor is recorded as “anti-tumor activity”.
With `COc1c2c(c(O)c3c4c(c(C)cc13)C1OC3(C(OC)OC)OC1[C@@](OC)(O4)[C@@]3(O)CCl)C(=O)CCC2` (stereo partly shown) [compound 2], the “potency relative to the bromohydrin” value in the data set with H460 cells (H460 cells, relative to bromohydrin 3) is reported as “an order of magnitude less potent”. This molecule came in with an IC50 in the data set with H460 cells (H460 cells) of 21 nM.
`COc1c2c(c(O)c3c4c(c(C)cc13)C1OC3(C(OC)OC)OC1[C@@](OC)(O4)[C@@]3(O)CBr)C(=O)CCC2` (stereo partly shown) [compound 3] had a 50% inhibitory concentration (IC50) in the data set on H460 cells (H460 cells) of 2 nM. Moreover, the “cellular toxicity against H460 cells relative to the parent epoxide” value in the data set with H460 cells was “no loss in cellular toxicity”. Also, the “reversion to the epoxide during DNA incubation” value in data set [2] (4 h at 23° C.) is listed as “did not revert to the epoxide”. Further, the DNA alkylation result in data set [2] (incubation with d(AATTACGTAATT) for 4 h at 23° C.) was “did not alkylate DNA”.
For the molecule `CNCCCC(=O)O[C@]1(CBr)C2(C(OC)OC)OC3c4c(C)cc5c(OC)c6c(c(O)c5c4O[C@]1(OC)C3O2)C(=O)CCC6` (stereo partly shown) [compound 13], the “liberation of the bromohydrin through ester spacer cyclization” value in [1] (pH 7.4 or 5.0, extended incubation at 37° C. or 50° C.) was “failed to liberate the bromohydrin”.
For the molecule `COCCOCCOCCOCCOCCOCCOCCC(=O)NCCCC[C@H](NC(=O)CCOCCOCCOCCOCCN1C(=O)C=CC1=O)C(=O)N[C@H](C(=O)N[C@@H](C)C(=O)Nc1ccc(COC(=O)N(CCS(C)(=O)=O)CO[C@]2(CBr)C3(C(OC)OC)OC4c5c(C)cc6c(OC)c7c(c(O)c6c5O[C@]2(OC)C4O3)C(=O)CCC7)cc1)C(C)C` (stereo partly shown) [compound 27], the “stability of drug-linker at pH 5.0 and 7.4” value in [3] (37° C., pH 5.0 and pH 7.4) was “exceptionally stable”. In addition, the free drug released result in data set [3] (after 1 week at pH 7.4, 37° C.) was “no detectable free drug released”. Also, the “payload release upon exposure to Cathepsin B” value at Cathepsin B was “rapidly releases payload”.
`COc1c2c(c(O)c3c4c(c(C)cc13)C1OC3(C(OC)OC)OC1[C@@](OC)(O4)[C@]3(CBr)OCN(CCS(C)(=O)=O)C(=O)OCc1ccc(NC(=O)[C@H](C)NC(=O)[C@@H](NC(=O)CCCCCN3C(=O)C=CC3=O)C(C)C)cc1)C(=O)CCC2` (stereo partly shown) [compound 19]: the “stability of drug-linker quenched with N-acetyl cysteine” value in data set [3] (37° C., pH 7.4 buffer) is on record as “stable for days”. The “payload release upon exposure to Cathepsin B” value on Cathepsin B is “excellent release kinetics; also recorded: rapidly liberated FST-bromohydrin payload 3”.
In the case of `COc1c2c(c(O)c3c4c(c(C)cc13)[C@@H]1O[C@@]3(C(OC)OC)O[C@@H]1[C@@](O[C@H]1C[C@@H](O)[C@@](O)(C(C)=O)[C@H](C)O1)(O4)[C@@]31CO1)C(=O)[C@@H](O)C[C@@H]2O[C@H]1C[C@@](C)(O)[C@H](OC(C)=O)[C@H](C)O1` [Trioxacarcin A], the “IC70 H-460” value with H-460 was “subnanmolar”. Moreover, in the data set with LXFL 529L, the “IC70 LXFL 529L” value is “subnanmolar”. In addition, the gram-positive antibiotic activity entry with gram-positive is recorded as “gram-positive antibiotic activity”. Also, the “anti-tumor activity in murine models” value in the data set on tumor was “anti-tumor activity”. Further, in the data set on SF-268, the “IC70 SF-268” value is “subnanmolar”. The “IC70 MCF-7” value in the data set on MCF-7 is on record as “subnanmolar”.
